Measurements published in ChEMBL document CHEMBL1138591, “Hair growth stimulator property of thienyl substituted pyrazole carboxamide derivatives as a CB1 receptor antagonist with in vivo antiobesity effect” (Bioorg Med Chem Lett, 2009).
Activity calls are given as the source filed them. The rule behind the calls is not given here.

How the values were obtained:
Cannabinoid receptor 2 = Cannabinoid receptor 2 (Homo sapiens, UniProt P34972); assay: Antagonist activity at human cannabinoid CB2 receptor expressed in CHOK1 cells assessed as cAMP activity; assay type: functional, cell-based, CHO-K1
Rattus norvegicus = assay: Antiobesity activity in Zucker fa/fa rat assessed as inhibition of 5% sucrose solution intake at 10 mg/kg administered as single dose up to 4 hrs relative to control; assay type: functional
Cannabinoid receptor 1 = Cannabinoid receptor 1 (Homo sapiens, UniProt P21554); assay: Antagonist activity at human cannabinoid CB1 receptor expressed in CHOK1 cells assessed as cAMP activity; assay type: functional, cell-based, CHO-K1
[1] = Cmax in fasted Zucker fa/fa rat at 30 mg/kg, po; assay type: ADME, organism-based; set-up: dose 30 mg/kg, route oral; conditions: in vivo
[2] = Drug level in fasted Zucker fa/fa rat white adipose tissue assessed per gram of tissue at 30 mg/kg, po after 3 hrs; assay type: ADME, organism-based; set-up: dose 30 mg/kg, route oral; conditions: read-out: Drug uptake
Mus musculus [3] = assay: Inhibition of WIN-55212-2-induced analgesia in Swiss albino mouse assessed as maximal possible effect at 5 mg/kg po by hot plate method; assay type: functional; set-up: scale not given: the % may be the effect or the level left
[4] = Half life in fasted Zucker fa/fa rat at 30 mg/kg, po; assay type: ADME, organism-based; set-up: dose 30 mg/kg, route oral; conditions: in vivo
[5] = Drug level in fasted Zucker fa/fa rat brain assessed per gram of brain at 30 mg/kg, po after 3 hrs; assay type: ADME, organism-based; set-up: dose 30 mg/kg, route oral; conditions: read-out: Drug uptake
Mus musculus [6] = assay: Antiobesity activity in high fat diet-induced obese C57BL/6J mouse model assessed as reduction in body weight gain at 10 mg/kg, po administered once daily for 28 days; assay type: functional, organism-based; set-up: dose 10 mg/kg
[7] = AUC (0 to infinity) in fasted Zucker fa/fa rat at 30 mg/kg, po; assay type: ADME, organism-based; set-up: time infinity, dose 30 mg/kg, route oral; conditions: plasma
Mus musculus [8] = assay: Antiobesity activity in high fat diet-induced obese C57BL/6J mouse model assessed as reduction in food intake at 10 mg/kg, po administered once daily for 28 days; assay type: functional, organism-based; set-up: dose 10 mg/kg
Mus musculus [9] = assay: Hair growth stimulatory activity in high fat diet-induced C57BL/6J mouse at 10 mg/kg administered tropically for 28 days measured after 28 days; assay type: functional, organism-based; set-up: dose 10 mg/kg
Mus musculus [10] = assay: Inhibition of WIN-55212-2-induced catalepsy in Swiss albino mouse assessed as immobility on ring at 5 mg/kg po up to 300 seconds by ring test; assay type: functional; set-up: scale not given: the % may be the effect or the level left
Mus musculus [11] = assay: Inhibition of WIN-55212-2-induced analgesia in Swiss albino mouse assessed as maximal possible effect at 1 mg/kg po by hot plate method; assay type: functional; set-up: scale not given: the % may be the effect or the level left
Mus musculus [12] = assay: Effect on WIN-55212-2-induced locomotor activity in Swiss albino mouse assessed as number of square crossed at 5 mg/kg po up to 300 seconds (RbV=20.67 +/- 3.38 squares); assay type: functional
Mus musculus [13] = assay: Inhibition of WIN-55212-2-induced analgesia in Swiss albino mouse assessed as maximal possible effect at 3 mg/kg po by hot plate method; assay type: functional; set-up: scale not given: the % may be the effect or the level left
Mus musculus [14] = assay: Effect on WIN-55212-2-induced locomotor activity in Swiss albino mouse assessed as number of square crossed at 1 mg/kg po up to 300 seconds (RbV=20.67 +/- 3.38 squares); assay type: functional
Mus musculus [15] = assay: Inhibition of WIN-55212-2-induced catalepsy in Swiss albino mouse assessed as immobility on ring at 10 mg/kg po up to 300 seconds by ring test; assay type: functional; set-up: scale not given: the % may be the effect or the level left
Mus musculus [16] = assay: Inhibition of WIN-55212-2-induced catalepsy in Swiss albino mouse assessed as immobility on ring at 1 mg/kg po up to 300 seconds by ring test; assay type: functional; set-up: scale not given: the % may be the effect or the level left
[17] = Plasma concentration in fasted Zucker fa/fa rat at 30 mg/kg, po after 3 hrs; assay type: ADME, organism-based; set-up: dose 30 mg/kg, route oral
Mus musculus [18] = species: Mus musculus; conditions: Swiss albino, 10 mg/kg
Description: Inhibition of WIN-55212-2-induced hypothermia in Swiss albino mouse assessed as change in body temperature at 10 mg/kg po

Mus musculus [19] = assay: Hair growth stimulatory activity in high fat diet-induced C57BL/6J mouse assessed as bald area at 10 mg/kg, po administered once daily for 28 days measured after 28 days (Rvb=0.346 +/- 0.079 cm'2); assay type: functional
[20] = Tmax in fasted Zucker fa/fa rat at 30 mg/kg, po; assay type: ADME, organism-based; set-up: dose 30 mg/kg, route oral; conditions: in vivo
[21] = Drug level in fasted Zucker fa/fa rat brain at 30 mg/kg, po after 3 hrs; assay type: ADME, organism-based; set-up: dose 30 mg/kg, route oral; conditions: read-out: Drug uptake
Mus musculus [22] = assay: Inhibition of WIN-55212-2-induced catalepsy in Swiss albino mouse assessed as immobility on ring at 3 mg/kg po up to 300 seconds by ring test; assay type: functional; set-up: scale not given: the % may be the effect or the level left
Mus musculus [23] = species: Mus musculus; conditions: Swiss albino, 3 mg/kg
Description: Inhibition of WIN-55212-2-induced hypothermia in Swiss albino mouse assessed as change in body temperature at 3 mg/kg po

Mus musculus [24] = assay: Inhibition of WIN-55212-2-induced analgesia in Swiss albino mouse assessed as maximal possible effect at 10 mg/kg po by hot plate method; assay type: functional; set-up: scale not given: the % may be the effect or the level left
Mus musculus [25] = assay: Effect on WIN-55212-2-induced locomotor activity in Swiss albino mouse assessed as number of square crossed at 10 mg/kg po up to 300 seconds (RbV=20.67 +/- 3.38 squares); assay type: functional
Mus musculus [26] = species: Mus musculus; conditions: Swiss albino, 1 mg/kg
Description: Inhibition of WIN-55212-2-induced hypothermia in Swiss albino mouse assessed as change in body temperature at 1 mg/kg po

Mus musculus [27] = assay: Hair growth stimulatory activity in high fat diet-induced C57BL/6J mouse at 10 mg/kg, po administered once daily for 28 days measured after 28 days; assay type: functional, organism-based; set-up: dose 10 mg/kg
[28] = Drug level in fasted Zucker fa/fa rat white adipose tissue at 30 mg/kg, po after 3 hrs; assay type: ADME, organism-based; set-up: dose 30 mg/kg, route oral; conditions: read-out: Drug uptake
Mus musculus [29] = assay: Effect on WIN-55212-2-induced locomotor activity in Swiss albino mouse assessed as number of square crossed at 3 mg/kg po up to 300 seconds (RbV=20.67 +/- 3.38 squares); assay type: functional
Mus musculus [30] = species: Mus musculus; conditions: Swiss albino, 5 mg/kg
Description: Inhibition of WIN-55212-2-induced hypothermia in Swiss albino mouse assessed as change in body temperature at 5 mg/kg po

Chain of Cannabinoid receptor 2 (P34972 whole entry): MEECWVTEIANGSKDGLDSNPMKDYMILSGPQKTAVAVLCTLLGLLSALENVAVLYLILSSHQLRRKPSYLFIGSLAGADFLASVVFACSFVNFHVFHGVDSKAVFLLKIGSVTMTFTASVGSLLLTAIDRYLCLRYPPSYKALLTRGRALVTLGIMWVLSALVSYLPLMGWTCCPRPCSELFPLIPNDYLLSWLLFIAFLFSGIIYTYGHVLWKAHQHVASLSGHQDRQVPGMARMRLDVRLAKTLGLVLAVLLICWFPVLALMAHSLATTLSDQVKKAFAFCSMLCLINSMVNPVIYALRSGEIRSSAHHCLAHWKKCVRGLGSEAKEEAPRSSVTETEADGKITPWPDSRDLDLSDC
Chain of Cannabinoid receptor 1 (P21554 whole entry): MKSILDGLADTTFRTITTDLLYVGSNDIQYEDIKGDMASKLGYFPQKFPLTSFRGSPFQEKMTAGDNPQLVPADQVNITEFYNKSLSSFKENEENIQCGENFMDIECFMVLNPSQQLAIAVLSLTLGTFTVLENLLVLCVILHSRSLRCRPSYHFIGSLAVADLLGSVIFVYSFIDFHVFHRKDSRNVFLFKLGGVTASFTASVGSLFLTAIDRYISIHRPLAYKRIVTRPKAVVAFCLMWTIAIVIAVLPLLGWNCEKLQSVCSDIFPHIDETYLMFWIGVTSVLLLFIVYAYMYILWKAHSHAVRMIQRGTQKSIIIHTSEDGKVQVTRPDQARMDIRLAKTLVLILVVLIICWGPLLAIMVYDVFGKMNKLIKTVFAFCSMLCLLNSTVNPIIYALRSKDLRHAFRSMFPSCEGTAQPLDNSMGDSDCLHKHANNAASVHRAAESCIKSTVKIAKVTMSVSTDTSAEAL

SMILES: Cc1c(C(=O)NN2CCCCC2)nn(-c2ccc(Cl)cc2Cl)c1-c1ccc(Br)s1
- EC50 (Cannabinoid receptor 2): 23.2 µM
- inhibition in vivo at 10 mg/kg (Rattus norvegicus): 37.8%
- EC50 (Cannabinoid receptor 1): 0.4 µM

SMILES: Cc1c(C(=O)NN2CC3CCCC3C2)nn(-c2ccc(Cl)cc2Cl)c1-c1ccc(Cl)s1 (stereo unspecified)
- EC50 (Cannabinoid receptor 2): 15.7 µM
- inhibition in vivo at 10 mg/kg (Rattus norvegicus): 26.3%
- EC50 (Cannabinoid receptor 1): 0.8 µM

SMILES: Cc1c(C(=O)NN2CCCCC2)nn(-c2ccc(Cl)cc2Cl)c1-c1ccc(Cl)s1
- Cmax [1]: 520 ng/mL
- concentration at 3 h [2]: 2970 ng/g
- Activity (Mus musculus [3]): 4.12%
- half-life [4]: 20.8 h
- concentration at 3 h [5]: 640 ng/g
- Activity (Mus musculus [6]): Active
- AUC(0-inf) [7]: 12400 ng·h/mL
- Activity (Mus musculus [8]): Active
- Activity (Mus musculus [9]): inactive
- Activity (Mus musculus [10]): 58.13%
- Activity (Mus musculus [11]): 34.84%
- Activity (Mus musculus [12]): 126.5
- EC50 (Cannabinoid receptor 2): 23.7 µM
- Activity (Mus musculus [13]): 12.28%
- Activity (Mus musculus [14]): 69.8
- Activity (Mus musculus [15]): 41.8%
- Activity (Mus musculus [16]): 80.73%
- concentration at 3 h [17]: 850 ng/mL
- deltaT (Mus musculus [18]): 0.23 °C
- Activity (Mus musculus [19]): 0.011 cm2
- Tmax [20]: 1.4 h
- concentration at 3 h [21]: 210 ng/mL
- Activity (Mus musculus [22]): 73.13%
- deltaT (Mus musculus [23]): 1.92 °C
- Activity (Mus musculus [24]): 4.35%
- Activity (Mus musculus [25]): 171.4
- deltaT (Mus musculus [26]): 2.56 °C
- Activity (Mus musculus [27]): Active
- concentration at 3 h [28]: 980 ng/mL
- Activity (Mus musculus [29]): 109.2
- inhibition in vivo at 10 mg/kg (Rattus norvegicus): 48%
- EC50 (Cannabinoid receptor 1): 0.58 µM
- deltaT (Mus musculus [30]): 0.23 °C

SMILES: CCc1c(C(=O)NN2CCCCC2)nn(-c2ccc(Cl)cc2Cl)c1-c1ccc(Br)s1
- EC50 (Cannabinoid receptor 2): 19.5 µM
- inhibition in vivo at 10 mg/kg (Rattus norvegicus): 39.2%
- EC50 (Cannabinoid receptor 1): 0.51 µM

SMILES: Cc1c(C(=O)NN2CCCCC2)nn(-c2ccc(Cl)cc2Cl)c1-c1ccc(Cl)cc1 [RIMONABANT]
- Activity (Mus musculus [9]): inactive
- concentration at 3 h [17]: 400 ng/mL
- Activity (Mus musculus [19]): 0.156 cm2
- concentration at 3 h [21]: 150 ng/mL
- concentration at 3 h [28]: 1400 ng/mL
- inhibition in vivo at 10 mg/kg (Rattus norvegicus): 40.1%

SMILES: Cc1c(C(=O)NN2CCOCC2)nn(-c2ccc(Cl)cc2Cl)c1-c1ccc(Cl)s1
- EC50 (Cannabinoid receptor 2): 7.43 µM
- inhibition in vivo at 10 mg/kg (Rattus norvegicus): 31.5%
- EC50 (Cannabinoid receptor 1): 0.69 µM

SMILES: Cc1c(C(=O)NN2CCCC2)nn(-c2ccc(Cl)cc2Cl)c1-c1ccc(Cl)s1
- EC50 (Cannabinoid receptor 2): 20.9 µM
- inhibition in vivo at 10 mg/kg (Rattus norvegicus): 34.3%
- EC50 (Cannabinoid receptor 1): 1 µM

SMILES: CCc1c(C(=O)NN2CCCCC2)nn(-c2ccc(Cl)cc2Cl)c1-c1ccc(Cl)s1
- EC50 (Cannabinoid receptor 2): 25.9 µM
- inhibition in vivo at 10 mg/kg (Rattus norvegicus): 31.3%
- EC50 (Cannabinoid receptor 1): 0.54 µM

SMILES: Cc1c(C(=O)NN2CCCCCC2)nn(-c2ccc(Cl)cc2Cl)c1-c1ccc(Cl)s1
- EC50 (Cannabinoid receptor 2): 12.8 µM
- inhibition in vivo at 10 mg/kg (Rattus norvegicus): 20.1%
- EC50 (Cannabinoid receptor 1): 1.1 µM

SMILES: Cc1c(C(=O)NN2CCCCC2)nn(-c2ccc(Cl)cc2Cl)c1-c1cccs1
- EC50 (Cannabinoid receptor 2): 7.55 µM
- inhibition in vivo at 10 mg/kg (Rattus norvegicus): 12.4%
- EC50 (Cannabinoid receptor 1): 1.33 µM

SMILES: Cc1c(C(=O)NN2CCCCC2)nn(-c2ccc(Cl)cc2Cl)c1-c1ccc(I)s1
- EC50 (Cannabinoid receptor 2): 29.4 µM
- inhibition in vivo at 10 mg/kg (Rattus norvegicus): 42.1%
- EC50 (Cannabinoid receptor 1): 0.32 µM
